Assay results published in patent US12275927B2, “Microbial contamination control in bioprocessing” (The Regents of the University of California, priority 2019, dated 2025).

Legend:
Azospira suillum PS = conditions: 40 μM chlorite, unpublished observations
OW94 = tested on: OW94
Method: (§1) A 2 L round-bottom autoclavable laboratory fermenter (BiOENGiNEERiNG), was operated as an iso-volumetric chemostat with 1 L of MRM medium in the bioreactor vessel. Temperature, dissolved oxygen (dO), and pH were monitored during the course of the experiments. Temperature was set and maintained at 37° C. pH was set to 7.2 and adjusted automatically based on the real time pH value with 1M NaOH or 1M HCl. dO was set to 20% of the maximal dO value at 37° C. with constant air flow of 2 L/min. Constant dO was maintained by automatic agitation speed adjustment based on the real-time dO value. Agitation speed varied between 200-700 RPM, depending on oxygen demand. Two separate pumps were used to control medium inflow and waste outflow rates.
(§2) The chemostat at first operated as a batch culture (dilution rate equal to 0), until the culture reached mid-log phase (OD600 of ˜0.7-1.0), then dilution rate was set to be approximately equal to the cell growth rate. This allowed the bioreactor to achieve a zero net growth while maintaining a near-maximum specific growth rate. […] All growth data were plotted and calculated using the Prism 7 software.

OW116 = tested on: OW116
Method: as §1, §2

wtCld-expressing OW95 = tested on: wtCld-expressing OW95
Method: (§3) 100 μL of water was added to the negative control wells. The plate was then placed in a shaker and cultivated overnight at 37° C., 250 rpm. IC50 were determined 24 hours after inoculation by measuring OD600.

[1] = tested on: RFP-expressing E. coli, OW94; conditions: read-out: chlorite IC50; OW94 negative control, growth (OD600) 24 hours at 37° C., MRM medium
Method: as §3

parental LMG194 = conditions: read-out: chlorite IC50; LMG194, growth (OD600) 24 hours at 37° C., MRM medium
Method: as §3

[2] = tested on: cCld expressing strain OW116
Method: as §3

[3] = tested on: SCW enrichment culture, OW117 and OW118; conditions: SCW enrichment vs OW117 vs OW118
From the text: as §2

[4] = tested on: chlorite hyper-resistant strain OW105; conditions: MRM medium
Method: as §3
OW95 cells were revived from freezer stocks, transferred into liquid MRM medium, and induced for Cld expression as described above.

[5] = tested on: cld deletion (Acid) mutant; conditions: 40 μM chlorite, unpublished observations
[6] = tested on: C. crescentus phage CR-30; conditions: incubated with chlorite at 30 C
Method: (§4) Influent wastewater samples were collected from the East Bay Municipal Utility District's wastewater treatment plant in Oakland, CA, and filtered through […] filters to remove debris and microbes. To make a phage enrichment culture, 5 mL of filtered wastewater was mixed with 5 mL of 2× LB medium and inoculated with 100 μL of stationary E. coli cells, incubated for 48 hours at 37° C., 50 RPM. Next, a sterile cotton swab was dipped into an overnight E. coli culture, smeared on an LB agar plate, and 10 μL of the phage enrichment culture was then spotted on the plate. The plate was incubated overnight at 37° C. […] Phage particles from the clear zone were picked into the phage buffer (10 mM Tris, 1 mM CaCl2 10 mM MgCl2, 68 mM NaCl, pH 7.5, adapted from the Phage Hunting Program, University of Pittsburgh), followed by dilution to extinction and plating to obtain single plaques with pure phage cultures. Phage cultures were maintained at 4° C. in the phage buffer. […] Samples were taken at designated time points and mixed with PYE (0.3%) agar and log phase (OD660 0.1-04) C. crescentus culture before plating on PYE plates. Plaque forming unites were counted after 24 hours.

E. coli lytic phages = conditions: 4 mM chlorite, 37° C.
Method: as §4

[7] = tested on: contaminants from Strawberry Creek water; conditions: 10 mM chlorite spiked, reactor contaminated with 1% (v/v) creek water, OW115
Method: as §1

SCW enrichment culture = conditions: 4 mM chlorite, OW117 bioreactor, SCW enrichment added
Method: as §1

[8] = 4 mM chlorite spiked into chemostat at equilibrium growth, 37° C.
[9] = batch cultures, different chlorite concentrations

Sodium chlorite
aerobic growth in the presence of chlorite (Azospira suillum PS): grew aerobically | specific growth rate after the chlorite spike (OW94; [8]): 0.01 ± 0.07 h⁻¹ | specific growth rate in batch culture as chlorite concentration increased (OW94; [9]): drastically decreased | specific growth rate after the chlorite spike (OW116; [8]): 0.64 ± 0.10 h⁻¹ | reduction of specific growth rate after the chlorite spike (OW116; 4 mM chlorite, chemostat, vs before spike): ~20% | specific growth rate in batch culture as chlorite concentration increased (OW116; [9]): only reduced slightly | increase in chlorite resistance compared to negative controls (wtCld-expressing OW95; OW95 vs OW94 and LMG194): three-fold increase | IC50 (wtCld-expressing OW95; read-out: chlorite IC50, OW95, Cld induced at 26° C., growth (OD600) 24 hours at 37° C., MRM medium): 1740 µM | IC50 [1]: 560 µM | IC50 (parental LMG194): 300 µM | chlorite resistance of cCld relative to wtCld ([2]; cCld vs wtCld): 5 fold | IC50 ([2]; read-out: chlorite IC50, OW116, growth (OD600) 24 hours at 37° C., MRM medium): 8940 µM | batch growth in medium with chlorite [3]: only OW118 could endure medium with chlorite | chlorite concentration in which the strain was able to grow, reaching a similar final OD600 as without chlorite control ([4]; end of directed evolution, 37° C.): 8 mM | IC50 ([4]; read-out: chlorite IC50, OW105, growth (OD600) 24 hours at 37° C.): 4600 µM | aerobic growth in the presence of chlorite [5]: failed to grow | phage inactivation [6]: chlorite-induced phage inactivation | phage inactivation (E. coli lytic phages): chlorite-induced phage inactivation | effect of chlorite spike on the contaminated bioreactor [7]: contaminants were inhibited and washed out | indigo production after addition of contaminants (SCW enrichment culture): indigo was steadily produced until the end of the experiment
